The source made the active and inactive calls. The rule behind the calls is not given here.
Tests used:
[1] = test system: LX-2; assay: Anti-hepatic fibrosis activity in human LX2 cells assessed as inhibition of TGFbeta1-induced alpha-SMA protein expression at 20 uM incubated for 24 hrs by western blot analysis; format: functional, cell-based
[2] = test system: Rattus norvegicus; assay: Anti-hepatic fibrosis activity in bile duct ligation rat model assessed as reduction in CoL1A1 mRNA expression at 100 mg/kg, po administered for 14 days by qRT-PCR analysis; format: functional, organism-based; details: time 14.0 day
[3] = test system: HSC-T6; assay: Anti-fibrosis effect in HSC-T6 cells assessed as reduction in TGFbeta1-induced COL1A1 protein expression measured for 24 hrs; format: functional, cell-based; details: Rattus norvegicus, dose 2.5-20 µM
[4] = test system: Rattus norvegicus; assay: Anti-hepatic fibrosis activity in bile duct ligation rat model assessed as reduction in alpha-SMA positive cells in liver at 100 mg/kg, po administered for 14 days by Immunofluorescence analysis; format: functional, organism-based; details: time 14.0 day
[5] = biological target: Collagen alpha-1(I) chain (Homo sapiens, UniProt P02452); assay: Inhibition of COL1A1 (unknown origin) expressed in human LX2 cells at 40 uM measured for 24 hrs relative to control; format: cell-based
[6] = test system: Rattus norvegicus; assay: Anti-hepatic fibrosis activity in bile duct ligation rat model assessed as reduction in […] level at 100 mg/kg, po administered for 14 days; format: functional; details: time 14 day
[7] = test system: Rattus norvegicus; assay: Anti-hepatic fibrosis activity in bile duct ligation rat model assessed as reduction in parenchyma necrosis at 100 mg/kg, po administered for 14 days by hematoxylin and eosin staining based analysis; format: functional, organism-based; details: time 14.0 day
[8] = test system: Rattus norvegicus; assay: Anti-hepatic fibrosis activity in bile duct ligation rat model assessed as reduction in CoL1A1 protein expression at 100 mg/kg, po administered for 14 days by Western blot analysis; format: functional, organism-based; details: time 14.0 day
[9] = test system: Mus musculus; assay: Anti-hepatic fibrosis activity in MDR2 knockout liver injury mouse model assessed as reduction in ALP level at 100 mg/kg, po administered once a day for 4 weeks (reference value: 386.80+/-179.56 U/L); format: functional
[10] = test system: LX-2; assay: Anti-fibrosis effect in human LX2 cells assessed as reduction in TGFbeta1-induced fibronectin mRNA expression at 10 to 20 uM measured for 24 hrs; format: functional, cell-based; details: dose 10-20 µM
[11] = test system: Rattus norvegicus; assay: Anti-hepatic fibrosis activity in bile duct ligation rat model assessed as reduction in bile duct proliferation at 100 mg/kg, po administered for 14 days by Immunofluorescence analysis; format: functional, organism-based; details: time 14.0 day
[12] = test system: LX-2; assay: Anti-fibrosis effect in human LX2 cells assessed as reduction in TGFbeta1-induced COL1A1 protein expression at 10 to 20 uM measured for 24 hrs; format: functional, cell-based; details: dose 10-20 µM
[13] = test system: LX-2; assay: Anti-hepatic fibrosis activity in human LX2 cells assessed as inhibition of TGF-beta1 induced CTGF mRNA expression at 20 uM incubated for 24 hrs by qRT-PCR analysis; format: functional, cell-based
[14] = test system: LX-2; assay: Anti-hepatic fibrosis activity in human LX2 cells assessed as inhibition of TGF-beta1 induced COL1A1 mRNA expression at 20 uM incubated for 24 hrs by qRT-PCR analysis; format: functional, cell-based
[15] = test system: Rattus norvegicus; assay: Anti-hepatic fibrosis activity in bile duct ligation rat model assessed as reduction in bile TBA level at 100 mg/kg, po administered for 14 days; format: functional; details: time 14 day
[16] = test system: LX-2; assay: Anti-fibrosis effect in human LX2 cells assessed as reduction in TGFbeta1-induced integrin subunit alpha-V mRNA expression at 10 to 20 uM measured for 24 hrs; format: functional, cell-based; details: dose 10-20 µM
[17] = test system: Rattus norvegicus; assay: Anti-hepatic fibrosis activity in bile duct ligation rat model assessed as reduction collagen accumulation at 100 mg/kg, po administered for 14 days; format: functional, organism-based; details: time 14.0 day
[18] = test system: Rattus norvegicus; assay: Anti-hepatic fibrosis activity in bile duct ligation rat model assessed as reduction in LRAT positive cells in liver at 100 mg/kg, po administered for 14 days by Immunofluorescence analysis; format: functional, organism-based; details: time 14.0 day
[19] = test system: Rattus norvegicus; assay: Anti-hepatic fibrosis activity in bile duct ligation rat model assessed as reduction in CTGF protein expression at 100 mg/kg, po administered for 14 days by Western blot analysis; format: functional, organism-based; details: time 14.0 day
[20] = test system: COL1A1; assay: Selectivity index, ratio of CC50 for cytotoxicity against human LX2 cells assessed as reduction in cell viability to IC50 for inhibition of COL1A1 (unknown origin) expressed in human LX2 cells; format: toxicity, cell-based; details: LX-2 cells, read-out: Ratio CC50/IC50
[21] = test system: Rattus norvegicus; assay: Anti-hepatic fibrosis activity in bile duct ligation rat model assessed as reduction in ITGAV mRNA expression at 100 mg/kg, po administered for 14 days by qRT-PCR analysis; format: functional, organism-based; details: time 14.0 day
[22] = test system: LX-2; assay: Anti-hepatic fibrosis activity in human LX2 cells assessed as inhibition of TGFbeta1-induced COL1A1 protein expression at 20 uM incubated for 24 hrs by western blot analysis; format: functional, cell-based
[23] = test system: Mus musculus; assay: Anti-hepatic fibrosis activity in MDR2 knockout liver injury mouse model assessed as reduction in alpha-SMA protein expression at 100 mg/kg, po administered once a day for 4 weeks by Western blot analysis; format: functional, organism-based
[24] = test system: Rattus norvegicus; assay: Anti-hepatic fibrosis activity in bile duct ligation rat model assessed as reduction in AST level at 100 mg/kg, po administered for 14 days; format: functional; details: time 14 day
[25] = test system: LX-2; assay: Anti-fibrosis effect in human LX2 cells assessed as reduction in TGFbeta1-induced COL1A1 mRNA expression at 10 to 20 uM measured for 24 hrs; format: functional, cell-based; details: dose 10-20 µM
[26] = test system: Mus musculus; assay: Anti-hepatic fibrosis activity in MDR2 knockout liver injury mouse model assessed as reduction inflammatory infiltration at 100 mg/kg, po administered once a day for 4 weeks by H and E staining analysis; format: functional, organism-based
[27] = test system: Rattus norvegicus; assay: Anti-hepatic fibrosis activity in bile duct ligation rat model assessed as reduction in ALT level at 100 mg/kg, po administered for 14 days; format: functional; details: time 14 day
[28] = test system: Mus musculus; assay: Anti-hepatic fibrosis activity in MDR2 knockout liver injury mouse model assessed as reduction in serum TBiL level at 100 mg/kg, po administered once a day for 4 weeks (reference value: 8.72+/-1.72 micromol/L); format: functional
[29] = test system: Rattus norvegicus; assay: Anti-hepatic fibrosis activity in bile duct ligation rat model assessed as reduction in ACTA2 mRNA expression at 100 mg/kg, po administered for 14 days by qRT-PCR analysis; format: functional, organism-based; details: time 14.0 day

Chain of Collagen alpha-1(I) chain (P02452 whole entry): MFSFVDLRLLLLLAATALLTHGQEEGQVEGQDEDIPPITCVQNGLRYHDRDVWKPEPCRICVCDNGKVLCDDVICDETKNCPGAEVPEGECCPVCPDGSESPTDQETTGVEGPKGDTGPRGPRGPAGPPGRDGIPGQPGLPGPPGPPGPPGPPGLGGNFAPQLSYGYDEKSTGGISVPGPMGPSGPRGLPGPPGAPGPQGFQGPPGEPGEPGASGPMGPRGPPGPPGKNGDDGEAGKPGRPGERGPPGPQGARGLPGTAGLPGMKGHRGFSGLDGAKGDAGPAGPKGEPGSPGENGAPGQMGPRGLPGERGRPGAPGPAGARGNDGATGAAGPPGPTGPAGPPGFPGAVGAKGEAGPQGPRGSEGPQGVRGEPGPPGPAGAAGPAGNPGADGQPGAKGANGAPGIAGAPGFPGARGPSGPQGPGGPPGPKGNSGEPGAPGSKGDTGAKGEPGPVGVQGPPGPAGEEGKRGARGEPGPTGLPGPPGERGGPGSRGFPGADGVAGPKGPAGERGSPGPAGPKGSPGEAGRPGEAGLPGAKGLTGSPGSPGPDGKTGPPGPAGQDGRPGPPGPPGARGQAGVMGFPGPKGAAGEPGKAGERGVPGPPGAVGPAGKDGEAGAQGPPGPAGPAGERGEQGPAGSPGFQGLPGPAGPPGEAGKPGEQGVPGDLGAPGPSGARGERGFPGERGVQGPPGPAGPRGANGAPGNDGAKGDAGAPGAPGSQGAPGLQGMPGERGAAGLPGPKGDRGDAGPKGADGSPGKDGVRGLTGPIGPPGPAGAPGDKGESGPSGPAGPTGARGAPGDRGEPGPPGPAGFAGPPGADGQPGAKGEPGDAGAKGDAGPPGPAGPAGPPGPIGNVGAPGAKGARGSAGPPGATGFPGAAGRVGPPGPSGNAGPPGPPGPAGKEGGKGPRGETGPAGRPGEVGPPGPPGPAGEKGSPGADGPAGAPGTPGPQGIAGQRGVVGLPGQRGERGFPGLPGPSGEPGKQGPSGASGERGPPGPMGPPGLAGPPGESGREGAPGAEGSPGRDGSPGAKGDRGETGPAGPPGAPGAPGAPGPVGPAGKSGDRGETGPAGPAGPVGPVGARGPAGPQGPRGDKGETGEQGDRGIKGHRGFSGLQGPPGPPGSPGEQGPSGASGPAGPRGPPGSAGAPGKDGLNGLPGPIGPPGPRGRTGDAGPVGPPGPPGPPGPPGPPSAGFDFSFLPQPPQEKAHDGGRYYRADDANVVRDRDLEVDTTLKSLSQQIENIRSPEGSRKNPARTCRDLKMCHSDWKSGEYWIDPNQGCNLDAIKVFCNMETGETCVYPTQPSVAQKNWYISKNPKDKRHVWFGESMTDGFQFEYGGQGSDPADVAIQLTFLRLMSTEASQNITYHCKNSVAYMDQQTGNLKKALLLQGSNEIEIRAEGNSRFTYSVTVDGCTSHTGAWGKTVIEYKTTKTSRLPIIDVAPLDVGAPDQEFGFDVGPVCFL

CCCC[C@@H]1[C@H]2CCCN3CCC[C@@H](CN1C(=O)Nc1c(CC)cccc1CC)[C@@H]23
Activity [1]: Active | Activity [2]: Active | Activity [3]: Dose-Dependent Effect | Activity [4]: Active | inhibition [5]: 98.8% | Activity [6]: 36.5 U/L | Activity [7]: Active | Activity [8]: Active | Activity [9]: 278.8 U/L | Activity [10]: Active | Activity [11]: Active | Activity [12]: Active | Activity [13]: Active | Activity [14]: Active | Activity [15]: 433.11 µmol/L | Activity [16]: Active | Activity [17]: Active | Activity [18]: Active | Activity [19]: Active | selectivity ratio [20]: 37.4 | Activity [21]: Active | Activity [22]: Active | Activity [23]: Active | Activity [24]: 447.83 U/L | Activity [25]: Active | Activity [26]: Active | Activity [27]: 60.67 U/L | Activity [28]: 6.58 µmol/L | Activity [29]: Active

— ChEMBL document CHEMBL5338827, “Evolution and Discovery of Matrine Derivatives as a New Class of Anti-Hepatic Fibrosis Agents Targeting Ewing Sarcoma Breakpoint Region 1 (EWSR1)” (J Med Chem, 2023)
